Earlier results on two compounds are cited in US20140271931A1, “Anti-Acne Topical Films” (Perosphere Inc., priority 2013, published 2014).

Series [1] has as its system cultured normal and transformed mammalian cells.

SMILES strings stand for the structures.

Turning to `CCCCc1ccc(C(=O)O)nc1` [Fusaric acid], the “penetration of the cell interior compared with picolinic acid” value in the series on cell interior is on record as “penetrates the cell interior much more easily than picolinic acid”. Consider `O=C(O)c1ccccn1` [Picolinic acid, 2-pyridine carboxylic acid], for which the solubility in water result is on record as “readily soluble in water”. Besides, in series [1], the “inhibition of growth of cultured normal and transformed mammalian cells” value was “inhibits the growth”.
